# Test results: patent publication US12522585B2, “Method for preparing 2-chloro-n-(1-cyanocyclopropyl)-5-[2′-methyl-5′-(pentafluoroethyl)-4′-(trifluoromethyl)-2′h-1,3′-bipyrazol-4-yl]benzamide” ([…], priority 2020, dated 2026)
# Experiment: TGA of the product prepared in example 6
# Format: physicochemical
# Settings: up to 150° C.
# Source text: The product prepared in example 6 was investigated by TGA.
smiles,measurement,value
"Cn1nc(C(F)(F)C(F)(F)F)c(C(F)(F)F)c1-n1cc(-c2ccc(Cl)c(C(=O)NC3(C#N)CC3)c2)cn1 [example 6, 2-chloro-N-(1-cyanocyclopropyl)-5-[2′-methyl-5′-(pentafluoroethyl)-4′-(trifluoromethyl)-2′H-1,3′-bipyrazol-4-yl]benzamide]",loss of mass (TGA),no loss of mass
